Columns and labels:
Format in all cases: in vivo
Chenopodium album [1] = assay: Test Example 5: herbicidal effect by foliage application, plastic box (symbol O); conditions: 320 g/ha, 3 weeks after application
Method in brief: (§1)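 Visual herbicidal score, taken three weeks post-application, of seedlings sprayed on the foliage with water-diluted emulsion at a predetermined amount; plants were 14 days old, greenhouse-raised at 25° C. to 30° C.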

Avena fatua [2] = assay: Test Example 4: herbicidal effect by soil treatment (symbol I); conditions: application herbicide amount 320 g/ha
Method in brief: (§2)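 Seeds were sown in sterilized diluvial soil, covered with about 1.5 cm of soil, and the soil surface was sprayed with a water-diluted emulsion of the compound at a predetermined rate. Plants grew in a greenhouse at 25° C. to 30° C.; effects were scored visually 3 weeks after application.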

Veronica persica [3] = assay: Test Example 4: herbicidal effect by soil treatment (symbol R); conditions: application herbicide amount 320 g/ha
Method in brief: as §2

transplanted rice plant = assay: Test Example 1: effect on crop, application before weed generation in submerged conditions (symbol a); conditions: application herbicide amount 320 g/ha
Method in brief: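 Alluvial soil pots flooded to 4 cm water, sown with Echinochloa oryzacola, Scirpus juncoides and Monochoria vaginalis, then transplanted with 2.5 leaf stage rice seedlings; pre-emergence application. Greenhouse 25° C. to 30° C.; scored 0–5 by herbicidal ratio 3 weeks after application.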

[4] = system: Echinochloa crus-galli var. crus-galli; assay: Test Example 4: herbicidal effect by soil treatment (symbol H); conditions: application herbicide amount 320 g/ha
Method in brief: as §2

Veronica persica [5] = assay: Test Example 5: herbicidal effect by foliage application, plastic box (symbol R); conditions: 320 g/ha, 3 weeks after application
Method in brief: as §1

Avena fatua [6] = assay: Test Example 5: herbicidal effect by foliage application, plastic box (symbol I); conditions: 320 g/ha, 3 weeks after application
Method in brief: as §1

Leptochloa chinensis = assay: Test Example 3: herbicidal effect by foliage application, Wagner pot (symbol D); conditions: application herbicide amount 320 g/ha
Method in brief: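 Herbicidal activity was rated three weeks after a foliar spray of diluted emulsion concentrate, applied at a predetermined dose to plants grown for 14 days from seed in waterlogged alluvial soil within a 25–30 °C greenhouse.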

Lolium multiflorum Lam. = assay: Test Example 4: herbicidal effect by soil treatment (symbol K); conditions: application herbicide amount 320 g/ha
Method in brief: as §2

Chenopodium album [7] = assay: Test Example 4: herbicidal effect by soil treatment (symbol O); conditions: application herbicide amount 320 g/ha
Method in brief: as §2

[8] = system: Echinochloa oryzacola Vasing.; assay: Test Example 2: herbicidal activity, application during weed generation in submerged conditions (symbol A); conditions: Table 23; application herbicide amount 320 g/ha; grade 0-5 by criteria of Test Example 1
Method in brief: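 Visual herbicidal ratings, taken three weeks after dosing, reflect post-emergence water-surface application to seedlings at one to two leaves. Conditions: co-sown weeds in alluvial soil flooded to 4 cm, greenhouse held at 25° C. to 30° C.; compound given as water-diluted emulsion at a fixed herbicide amount.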

Digitaria ciliaris = assay: Test Example 4: herbicidal effect by soil treatment (symbol F); conditions: application herbicide amount 320 g/ha
Method in brief: as §2

Setaria viridis = assay: Test Example 5: herbicidal effect by foliage application, plastic box (symbol G); conditions: 320 g/ha, 3 weeks after application
Method in brief: as §1

corn = assay: Test Example 5: effect on crop by foliage application, plastic box (symbol c); conditions: 320 g/ha, 3 weeks after application
Method in brief: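 Soil: sterilized diluvial. Container: plastic box, 21 × 13 cm, 7 cm deep. Sowing: spot-like, ~1.5 cm cover. Growth: greenhouse, 25° C. to 30° C.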

| Structure (SMILES) | O: Chenopodium album, herbicidal effect (criteria of Test Example 1) (Chenopodium album [1]) | Herbicidal effect grade, I: Avena fatua (Avena fatua [2]) | Herbicidal effect grade, R: Veronica persica (Veronica persica [3]) | Effect grade on crop, a: transplanted rice plant (transplanted rice plant) | Herbicidal effect grade, H: Echinochloa crus-galli var. crus-galli [4] | R: Veronica persica, herbicidal effect (criteria of Test Example 1) (Veronica persica [5]) | I: Avena fatua, herbicidal effect (criteria of Test Example 1) (Avena fatua [6]) | herbicidal effect on D (Leptochloa chinensis), grade 0-5 (Leptochloa chinensis) | Herbicidal effect grade, K: Lolium multiflorum Lam. (Lolium multiflorum Lam.) | Herbicidal effect grade, O: Chenopodium album (Chenopodium album [7]) | Herbicidal effect grade, A: Echinochloa oryzacola Vasing. [8] | Herbicidal effect grade, F: Digitaria ciliaris (Digitaria ciliaris) | G: Setaria viridis, herbicidal effect (criteria of Test Example 1) (Setaria viridis) | c: corn, effect on crop (criteria of Test Example 1) (corn) | I: Avena fatua, herbicidal effect grade (Avena fatua [2]) | R: Veronica persica, herbicidal effect grade (Veronica persica [3]) | H: Echinochloa crus-galli var. crus-galli, herbicidal effect grade [4] | K: Lolium multiflorum Lam., herbicidal effect grade (Lolium multiflorum Lam.) | O: Chenopodium album, herbicidal effect grade (Chenopodium album [7]) | F: Digitaria ciliaris, herbicidal effect grade (Digitaria ciliaris) |
| --- | --- | --- | --- | --- | --- | --- | --- | --- | --- | --- | --- | --- | --- | --- | --- | --- | --- | --- | --- | --- |
| CON=C(C)C(C)C1CC(O)=C(c2c(C)cc(Br)cc2OC)C1=O (centres unmarked) [6-113] | 2 (Herbicidal ratio of 20% or higher and lower than 40%) | 0 (Herbicidal ratio of 5% or lower (almost no effect)) | 0 (Herbicidal ratio of 5% or lower (almost no effect)) | 5 (Herbicidal ratio of 90% or more (almost completely withered)) | 5 (Herbicidal ratio of 90% or more (almost completely withered)) | 0 (Herbicidal ratio of 5% or lower (almost no effect)) | 5 (Herbicidal ratio of 90% or more (almost completely withered)) | 5 (Herbicidal ratio of 90% or more (almost completely withered)) | 5 (Herbicidal ratio of 90% or more (almost completely withered)) | 0 (Herbicidal ratio of 5% or lower (almost no effect)) | 5 (Herbicidal ratio of 90% or more (almost completely withered)) | 5 (Herbicidal ratio of 90% or more (almost completely withered)) | 5 (Herbicidal ratio of 90% or more (almost completely withered)) | 5 (Herbicidal ratio of 90% or more (almost completely withered)) | – | – | – | – | – | – |
| CC(=O)CC1CC(O)=C(c2c(C)cc(-c3ccc(Cl)cc3)cc2C)C1=O (centres unmarked) [7-008] | 2 (Herbicidal ratio of 20% or higher and lower than 40%) | 3 (Herbicidal ratio of 40% or higher and lower than 70%) | 0 (Herbicidal ratio of 5% or lower (almost no effect)) | 5 (Herbicidal ratio of 90% or more (almost completely withered)) | 5 (Herbicidal ratio of 90% or more (almost completely withered)) | 3 (Herbicidal ratio of 40% or higher and lower than 70%) | 5 (Herbicidal ratio of 90% or more (almost completely withered)) | 5 (Herbicidal ratio of 90% or more (almost completely withered)) | 5 (Herbicidal ratio of 90% or more (almost completely withered)) | 0 (Herbicidal ratio of 5% or lower (almost no effect)) | 4 (Herbicidal ratio of 70% or higher and lower than 90%) | 5 (Herbicidal ratio of 90% or more (almost completely withered)) | 5 (Herbicidal ratio of 90% or more (almost completely withered)) | 5 (Herbicidal ratio of 90% or more (almost completely withered)) | – | – | – | – | – | – |
| CON=C(C)CC1CC(O)=C(c2c(F)cc(Br)cc2OC)C1=O (centres unmarked) [6-096] | 1 (Herbicidal ratio of 5% or higher and lower than 20%) | 3 (Herbicidal ratio of 40% or higher and lower than 70%) | 0 (Herbicidal ratio of 5% or lower (almost no effect)) | 5 (Herbicidal ratio of 90% or more (almost completely withered)) | 4 (Herbicidal ratio of 70% or higher and lower than 90%) | 3 (Herbicidal ratio of 40% or higher and lower than 70%) | 5 (Herbicidal ratio of 90% or more (almost completely withered)) | 4 (Herbicidal ratio of 70% or higher and lower than 90%) | 5 (Herbicidal ratio of 90% or more (almost completely withered)) | 0 (Herbicidal ratio of 5% or lower (almost no effect)) | 4 (Herbicidal ratio of 70% or higher and lower than 90%) | 4 (Herbicidal ratio of 70% or higher and lower than 90%) | – | – | – | – | – | – | – | – |
| CON=C(C)CC1CC(OC(=O)N2CCOCC2)=C(c2c(C)cc(-c3ccc(Cl)cc3F)cc2C)C1=O (centres unmarked) [6-089] | 4 (Herbicidal ratio of 70% or higher and lower than 90%) | 0 (Herbicidal ratio of 5% or lower (almost no effect)) | 0 (Herbicidal ratio of 5% or lower (almost no effect)) | 5 (Herbicidal ratio of 90% or more (almost completely withered)) | 1 (Herbicidal ratio of 5% or higher and lower than 20%) | 4 (Herbicidal ratio of 70% or higher and lower than 90%) | 5 (Herbicidal ratio of 90% or more (almost completely withered)) | 5 (Herbicidal ratio of 90% or more (almost completely withered)) | 3 (Herbicidal ratio of 40% or higher and lower than 70%) | 0 (Herbicidal ratio of 5% or lower (almost no effect)) | 5 (Herbicidal ratio of 90% or more (almost completely withered)) | 5 (Herbicidal ratio of 90% or more (almost completely withered)) | – | – | – | – | – | – | – | – |
| CCc1cc(-c2ccc(Cl)cc2)cc(C)c1C1=C(OC(=O)N2CCOCC2)CC(CC(C)=NOC)C1=O (mixture of isomers) [6-064] | – | – | – | 5 (Herbicidal ratio of 90% or more (almost completely withered)) | – | 4 (Herbicidal ratio of 70% or higher and lower than 90%) | 5 (Herbicidal ratio of 90% or more (almost completely withered)) | 5 (Herbicidal ratio of 90% or more (almost completely withered)) | – | – | 4 (Herbicidal ratio of 70% or higher and lower than 90%) | – | 5 (Herbicidal ratio of 90% or more (almost completely withered)) | 5 (Herbicidal ratio of 90% or more (almost completely withered)) | 0 (Herbicidal ratio of 5% or lower (almost no effect)) | 0 (Herbicidal ratio of 5% or lower (almost no effect)) | 5 (Herbicidal ratio of 90% or more (almost completely withered)) | 0 (Herbicidal ratio of 5% or lower (almost no effect)) | 0 (Herbicidal ratio of 5% or lower (almost no effect)) | 5 (Herbicidal ratio of 90% or more (almost completely withered)) |

Source: patent US11000033B2, “Ketone or oxime compound, and herbicide” (NISSAN CHEMICAL CORPORATION, priority 2014, dated 2021)
